The nature of data set [1]: H2S release from SA/JK-1 sponge at varied pH. To be noted: pH 6.0.
Data set [2] is described as follows: H2S release kinetics from PCL-JK-1 fibrous scaffold, modified Methylene Blue method. To be noted: pH 6.0, PBS; PCL-JK-1 with 10% JK-1, JK-1 in solution as control (FIG. 4B).

SMILES strings stand for the structures.

On to `O=C([O-])CNP([O-])(=S)c1ccccc1.[Li+].[Li+]` (centres unmarked) [JK-1], for which the results for the “time to H2S peak concentration” value in data set [1] and in data set [2] were at most 55 min and at most 10 min, respectively.

The values are drawn from patent US10456410B2, “Hydrogen sulfide (H2S) releasing donor compound for dermal wound regeneration” (University of South Carolina, priority 2017, dated 2019).
